Assay results as given in article PMC3961306, “Comparison of the Cancer Gene Targeting and Biochemical Selectivities of All Targeted Kinase Inhibitors Approved for Clinical Use” (PLoS ONE, 2014).

What was measured:
Test in all cases: Kinase profiling in a biochemical assay panel (mobility shift assays and ELISA), %-inhibition at 1 μM; selectivity entropy
[1] = biological target: T1, panel of more than 300 wild-type and mutant kinases (313 kinase panel) (Homo sapiens, UniProt O15530); details: kinase PDK1; 1 μM
T1 sequence (O15530 1-556): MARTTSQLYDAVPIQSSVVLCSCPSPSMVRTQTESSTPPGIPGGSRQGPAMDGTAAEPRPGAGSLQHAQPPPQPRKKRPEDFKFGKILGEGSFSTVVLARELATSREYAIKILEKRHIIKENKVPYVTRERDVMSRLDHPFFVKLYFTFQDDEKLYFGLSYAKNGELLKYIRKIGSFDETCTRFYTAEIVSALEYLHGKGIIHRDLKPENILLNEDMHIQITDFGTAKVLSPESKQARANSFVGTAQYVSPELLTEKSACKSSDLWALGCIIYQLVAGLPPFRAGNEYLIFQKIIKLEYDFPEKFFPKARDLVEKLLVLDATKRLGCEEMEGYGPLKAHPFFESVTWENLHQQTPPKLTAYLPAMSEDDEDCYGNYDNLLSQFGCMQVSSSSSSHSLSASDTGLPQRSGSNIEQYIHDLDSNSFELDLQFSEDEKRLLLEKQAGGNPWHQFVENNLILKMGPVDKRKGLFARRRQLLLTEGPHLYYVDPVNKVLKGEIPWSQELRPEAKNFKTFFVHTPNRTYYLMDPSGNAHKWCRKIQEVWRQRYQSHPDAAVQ

[2] = biological target: panel of more than 300 wild-type and mutant kinases (313 kinase panel) (Homo sapiens, UniProt P29376); details: kinase LTK; compound at 1 μM
[3] = biological target: T2, panel of more than 300 wild-type and mutant kinases (313 kinase panel) (Homo sapiens, UniProt P33981); details: kinase TTK; compound at 1 μM
T2 sequence (P33981 1-857): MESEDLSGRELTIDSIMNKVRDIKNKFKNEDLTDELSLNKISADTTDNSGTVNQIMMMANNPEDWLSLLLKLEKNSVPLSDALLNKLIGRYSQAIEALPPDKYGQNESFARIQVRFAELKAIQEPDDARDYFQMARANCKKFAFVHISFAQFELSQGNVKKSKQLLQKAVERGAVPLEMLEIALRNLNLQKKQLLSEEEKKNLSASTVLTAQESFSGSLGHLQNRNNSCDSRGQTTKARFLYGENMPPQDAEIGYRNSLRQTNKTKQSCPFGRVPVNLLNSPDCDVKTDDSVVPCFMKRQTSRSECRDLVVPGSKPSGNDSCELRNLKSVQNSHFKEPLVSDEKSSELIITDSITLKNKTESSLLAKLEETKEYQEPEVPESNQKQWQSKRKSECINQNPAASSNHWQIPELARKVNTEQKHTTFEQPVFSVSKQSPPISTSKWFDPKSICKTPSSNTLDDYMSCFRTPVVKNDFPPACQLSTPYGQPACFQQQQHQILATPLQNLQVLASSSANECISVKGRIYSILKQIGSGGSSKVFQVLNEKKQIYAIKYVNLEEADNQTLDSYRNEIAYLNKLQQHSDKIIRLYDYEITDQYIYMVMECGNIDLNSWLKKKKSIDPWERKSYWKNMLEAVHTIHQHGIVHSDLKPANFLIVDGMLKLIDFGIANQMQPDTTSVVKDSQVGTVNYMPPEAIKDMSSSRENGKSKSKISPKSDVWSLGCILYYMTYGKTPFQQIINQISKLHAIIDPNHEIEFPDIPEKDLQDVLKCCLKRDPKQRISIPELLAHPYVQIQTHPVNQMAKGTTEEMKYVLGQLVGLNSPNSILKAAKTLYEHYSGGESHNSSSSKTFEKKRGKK

[4] = biological target: T3, panel of more than 300 wild-type and mutant kinases (313 kinase panel) (Homo sapiens, UniProt P42680); details: kinase TEC; 1 μM
T3 sequence (P42680 1-631): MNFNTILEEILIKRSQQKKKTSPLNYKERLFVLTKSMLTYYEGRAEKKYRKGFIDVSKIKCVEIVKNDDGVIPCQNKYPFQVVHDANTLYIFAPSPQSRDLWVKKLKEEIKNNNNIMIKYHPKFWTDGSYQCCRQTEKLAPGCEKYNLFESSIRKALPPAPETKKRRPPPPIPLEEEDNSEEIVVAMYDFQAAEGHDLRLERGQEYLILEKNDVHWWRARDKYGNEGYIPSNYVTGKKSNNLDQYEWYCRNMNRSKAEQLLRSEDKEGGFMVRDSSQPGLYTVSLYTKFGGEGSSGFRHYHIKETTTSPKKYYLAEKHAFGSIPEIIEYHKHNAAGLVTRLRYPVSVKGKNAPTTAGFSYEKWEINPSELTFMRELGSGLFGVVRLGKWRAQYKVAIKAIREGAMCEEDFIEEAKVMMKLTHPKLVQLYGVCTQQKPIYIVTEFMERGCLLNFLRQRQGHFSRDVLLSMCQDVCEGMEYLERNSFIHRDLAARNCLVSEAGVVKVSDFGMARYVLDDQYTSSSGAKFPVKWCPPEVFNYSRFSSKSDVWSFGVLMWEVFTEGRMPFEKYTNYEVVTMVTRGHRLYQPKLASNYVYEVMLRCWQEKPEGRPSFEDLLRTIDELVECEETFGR

[5] = biological target: panel of more than 300 wild-type and mutant kinases (313 kinase panel) (Homo sapiens, UniProt P43405); details: kinase SYK; 1 μM
[6] = biological target: panel of more than 300 wild-type and mutant kinases (313 kinase panel) (Homo sapiens, UniProt Q13627); details: kinase DYRK1A; compound at 1 μM
[7] = biological target: panel of more than 300 wild-type and mutant kinases (313 kinase panel) (Homo sapiens, UniProt Q15759); details: kinase p38β; 1 μM
[8] = biological target: panel of more than 300 wild-type and mutant kinases (313 kinase panel) (Homo sapiens, UniProt Q9H2X6); details: kinase HIPK2; compound at 1 μM
[9] = biological target: panel of more than 300 wild-type and mutant kinases (313 kinase panel) (Homo sapiens, UniProt P22694); details: kinase PKACβ; 1 μM

| SMILES | %-inhibition of PDK1 [1] | %-inhibition of LTK [2] | %-inhibition of TTK [3] | %-inhibition of TEC [4] | %-inhibition of SYK [5] | %-inhibition of DYRK1A [6] | %-inhibition of p38β [7] | %-inhibition of HIPK2 [8] | %-inhibition of PKACβ [9] |
| --- | --- | --- | --- | --- | --- | --- | --- | --- | --- |
| CC(C)(C)c1nc(-c2cccc(NS(=O)(=O)c3c(F)cccc3F)c2F)c(-c2ccnc(N)n2)s1 [dabrafenib] | -5.38% | 2.67% | -22% | 38% | 37% | 16% | 5.3% | 42% | – |
| CCCS(=O)(=O)Nc1ccc(F)c(C(=O)c2c[nH]c3ncc(-c4ccc(Cl)cc4)cc23)c1F [vemurafenib] | -4% | 2.6% | -14% | -0.191% | -3.77% | -18% | 24% | -5% | 2.66% |
| Cc1nc(Nc2ncc(C(=O)Nc3c(C)cccc3Cl)s2)cc(N2CCN(CCO)CC2)n1 [dasatinib] | – | – | – | – | 69% | – | – | 6% | -1.68% |
| C[C@@H](Oc1cc(-c2cnn(C3CCNCC3)c2)cnc1N)c1c(Cl)ccc(F)c1Cl [crizotinib] | -5% | – | -9% | 1.53% | – | -13% | – | -6.53% | -2.3% |
| Cc1ccc(C(=O)Nc2ccc(CN3CCN(C)CC3)c(C(F)(F)F)c2)cc1C#Cc1cnc2cccnn12 [ponatinib] | -5% | 85% | – | 79% | 10% | – | 101% | – | – |
| O=S(=O)(c1cccc2cnccc12)N1CCCNCC1 [fasudil] | -2.83% | -3.76% | -11% | -7% | 6% | 4.23% | -2.17% | -1.86% | – |
| COc1cc(Nc2c(C#N)cnc3cc(OCCCN4CCN(C)CC4)c(OC)cc23)c(Cl)cc1Cl [bosutinib] | -4.64% | 59% | – | 58% | 100% | – | -0.299% | – | 52% |
| CO[C@H]1C[C@@H]2CC[C@@H](C)[C@@](O)(O2)C(=O)C(=O)N2CCCC[C@H]2C(=O)O[C@H]([C@H](C)C[C@@H]2CC[C@@H](OCCO)[C@H](OC)C2)CC(=O)[C@H](C)/C=C(\C)[C@@H](O)[C@@H](OC)C(=O)[C@H](C)C[C@H](C)/C=C/C=C/C=C/1C [everolimus] | -9% | -12% | -2.68% | -4% | -2.55% | -11% | -4.49% | -6% | -6% |
| Cc1ccc(Nc2nccc(N(C)c3ccc4c(C)n(C)nc4c3)n2)cc1S(N)(=O)=O [pazopanib] | -0.284% | 27% | 31% | 48% | 40% | – | 18% | 5.51% | 0.211% |
| CNC(=O)c1cc(Oc2ccc(NC(=O)Nc3ccc(Cl)c(C(F)(F)F)c3)c(F)c2)ccn1 [regorafenib] | -3% | -1.56% | 0.186% | -8% | 3.55% | -15% | 98% | 78% | -0.531% |
| CC(=O)Nc1cccc(-n2c(=O)n(C3CC3)c(=O)c3c(Nc4ccc(I)cc4F)n(C)c(=O)c(C)c32)c1 [trametinib] | -5.52% | -7% | 59% | -7.53% | -5% | -1.23% | 2.31% | 0.155% | -5% |
| CCN(CC)CCNC(=O)c1c(C)[nH]c(/C=C2\C(=O)Nc3ccc(F)cc32)c1C [sunitinib] | – | 81% | – | – | – | – | – | – | – |
| CO[C@H]1C[C@@H]2CC[C@@H](C)[C@@](O)(O2)C(=O)C(=O)N2CCCC[C@H]2C(=O)O[C@H]([C@H](C)C[C@@H]2CC[C@@H](OC(=O)C(C)(CO)CO)[C@H](OC)C2)CC(=O)[C@H](C)/C=C(\C)[C@@H](O)[C@@H](OC)C(=O)[C@H](C)C[C@H](C)/C=C/C=C/C=C/1C [temsirolimus] | -8% | -10% | -22% | -9% | -13% | -3% | -2% | 0.538% | -6% |
| COc1cc2c(Nc3ccc(Br)cc3F)ncnc2cc1OCC1CCN(C)CC1 [vandetanib] | -4.37% | – | 3% | 15% | 27% | -11% | 7% | -11% | -0.0886% |
